Reference: patent publication US9034825B2, “Treatment of myocardial injury with humanin analogs” (Albert Einstein College of Medicine of Yeshiva University, priority 2007, dated 2015)

Key:
[1] = tested on: phospho Akt and ACC in muscle; assay: Western blot of skeletal muscle insulin signaling after ICV infusion; assay type: in vivo, rat; settings: muscle tissues from ICV-infused rats
Procedure: The indicated tissues were homogenized in 20 mM MOPS, 2 mM EGTA, 5 mM EDTA, 30 mM sodium fluoride, 40 mM beta-glycerophosphate, 10 mM sodium pyrophosphate, 2 mM orthovanadate, 0.5% NP-40 and complete protease inhibitor cocktail (Roche, Indianapolis, Ind., USA) and centrifuged at 12,000 g for 15 min and the supernatant was harvested while carefully avoiding the lipid layer on top. Protein concentration was measured with a BCA protein quantification kit (Pierce, Rockford, Ill., USA). Protein extracts were separated on 4-12% NuPAGE (Invitrogen, Carlsbad, Calif., USA) gels and were blotted onto Immobilon FL PVDF (Millipore, Billerica, Mass., USA). […] After three washes in TBS-T and a final wash in TBS the blots were scanned using the LI-COR Odyssey (LI-COR, Lincoln, Nebr., USA) and quantified using Odyssey 2.0 software based on direct fluorescence measurement.
For acute signaling studies, rats were injected ICV with either aCSF, 20 μg of HN or F6A (dissolved in aCSF) over 5 min, and sacrificed 30 min later. […] Samples were also obtained from these tissues at the end of the clamp and western blot analysis was performed as described previously (Muzumdar et al. 2003) The blots were scanned using the LI-COR Odyssey (LI-COR, Lincoln, Nebr., USA) and quantified using Odyssey 2.0 software based on direct fluorescence measurement. […]

[2] = tested on: Sprague-Dawley rats; assay: ICV infusion of humanin or F6A HN with basal and hyperinsulinemic clamp (Example 2); assay type: in vivo, rat
Text: Young (3 mo old, n=6 in each group), male Sprague-Dawley rats (Charles River Laboratories, Wilmington, Mass.) were used for this study. Rats were housed in individual cages and were subjected to a standard light (6:00 AM to 6:00 PM)—dark (6:00 PM to 6:00 AM) cycle. All rats were fed ad libitum using regular rat chow that consisted of 64% carbohydrate, 30% protein, and 6% fat with a physiological fuel value of 3.3-kcal/g chow. 2 to 4 weeks before the in vivo study, the rats were anesthetized by inhalation of isoflurane and ICV cannula was placed in the third ventricle for infusions of humanin, humanin analog F6A HN or artificial CSF (aCSF), as previously described (Muzumdar et al., 2003) (FIG. 6). Briefly, a 26-gauge stainless steel guide cannula (Plastics One, Roanoke, Va.) was chronically implanted into the third ventricles using the following coordinates from bregma: anterior-posterior; +0.2 mm dorsal-ventral; −9.0 mm medial-lateral; 0.0 directly on the mid-sagittal suture, followed by a 28-gauge dummy cannula, inserted to prevent clogging of the guide cannula. The implant was secured to the skull with Caulk Grip dental cement, and the skin was closed over the implant using wound clips. The recovery of rats from the surgical stress was monitored with daily weight, food intake, and movement.
Upon recovery of body weight, usually a week, indwelling catheters were placed in the right internal jugular vein and in the left carotid artery (Muzumdar et al., 2003). The venous catheter was extended to the level of the right atrium, and the arterial catheter was advanced to the level of the aortic arch. Recovery was continued until body weight was within 3% of the pre-operative weight (˜4-6 days). In the rats that received peripheral humanin, only the vascular catheters were placed.
Studies were performed in unrestrained rats using the insulin clamp technique, in combination with high performance liquid chromatography-purified [3-^3H]glucose, as described previously (Liu et al., 1998). Food was removed for ˜5 h before the in vivo protocol. All studies lasted 360 min and included a 120-min equilibration period, a 120-min basal period for assessment of the basal glucose turnover, and a 120-min hyperinsulinemic clamp period. All rats received ICV infusions (bolus followed by continuous ICV infusions of humanin, F6A HN or aCSF, depending on the group) over the entire 6 hours of the study. At the beginning of the basal period and 120 min before starting the glucose/insulin infusions, a primed-continuous infusion of high performance liquid chromatography-purified [3-^3H]glucose (NEN Life Science Products, Boston, Mass.; 20 μCi of bolus, 0.2 μCi/min) was initiated and maintained throughout the remaining 4 h of the study. In the final 2 hours of the study, the rats were subjected to hyperinsulinemic clamp. The protocol followed during the insulin clamp study was similar to that previously described (Liu et al., 1998). Briefly, a primed-continuous infusion of regular insulin (3 milliunits/kg-min) was administered, and a variable infusion of a 25% glucose solution was started and periodically adjusted to clamp the plasma glucose concentration at 7-8 mM. To prevent endogenous insulin secretion and in order to control for possible effects of ICV infusions on the endocrine pancreas, somatostatin (1.5 μg/kg-min) was also infused in all the groups.
A bolus of humanin (6 μg) was followed by a continuous infusion over 6 hours (total dose of 18 μg, 0.1 μg/kg/min).
F6A HN has one amino acid substitution (F6A-phenylalanine to alanine on position 6) and has been characterized. A bolus of F6 A HN ([…]) was followed by a continuous infusion over 6 hours (total 18 μg, 0.1 μg/kg/min).
Plasma glucose (sample volume 10 μl) was measured by the glucose oxidase method (Glucose Analyzer II, Beckman Instruments, Palo Alto, Calif.). […]

[3] = ICV 18 μg over 6 h, basal period
[4] = ICV 18 μg over 6 h, hyperinsulinemic clamp

In the case of `CC[C@H](C)[C@H](NC(=O)[C@H](CCC(=O)O)NC(=O)[C@H](CO)NC(=O)[C@@H](NC(=O)[C@H](CC(C)C)NC(=O)[C@H](CC(C)C)NC(=O)[C@H](CC(C)C)NC(=O)[C@H](CC(C)C)NC(=O)[C@H](CS)NC(=O)[C@H](CO)NC(=O)[C@H](Cc1ccccc1)NC(=O)CNC(=O)[C@H](CCCNC(=N)N)NC(=O)[C@@H]1CCCN1C(=O)[C@H](C)NC(=O)[C@@H](N)CCSC)[C@@H](C)O)C(=O)N[C@@H](CC(=O)O)C(=O)N[C@@H](CC(C)C)C(=O)N1CCC[C@H]1C(=O)N[C@H](C(=O)N[C@@H](CCCCN)C(=O)N[C@@H](CCCNC(=N)N)C(=O)N[C@@H](CCCNC(=N)N)C(=O)N[C@@H](C)C(=O)O)C(C)C` [Humanin, maprgfscll lltseidlpv krra], the “pAKT and acetyl CoA carboxylase in muscle compared to aCSF” value [1] is reported as “significantly increased”, the “Glycogen synthesis, Basal” value [2, 3] is reported as 4.89 ± 0.61 and the “Glycolysis, Basal” value [2, 3] is reported as 7.99 ± 0.73 mg/kg/min. The “HGP, Basal” value [2, 3] was 12.87 ± 1.6 mg/kg/min, the FFA [2, 4] was 0.33 ± 0.03 mEq/L and the “Glycogen synthesis, Clamp” value [2, 4] was 9.75 ± 0.92. For the same compound, the “Glycolysis, Clamp” value [2, 4] was 15.1 ± 1.0 mg/kg/min, the “HGP, Clamp” value [2, 4] was 2.27 ± 0.37 mg/kg/min and the “Rd, Clamp” value [2, 4] was 24.9 ± 1.6 mg/kg/min. For the same compound, the “GIR, Clamp” value ([2]; ICV 18 μg over 6 h, hyperinsulinemic clamp 3 mU/kg/min) was 22.8 ± 1.64 mg/kg/min, the “increase in peripheral glucose uptake (Rd)” value ([2]; ICV HN, hyperinsulinemic clamp) was roughly 150% and the “more reduction in hepatic glucose production (HGP)” value ([2]; ICV HN, hyperinsulinemic clamp) was roughly 50%. For the same compound, the “suppression of FFA compared to controls” value ([2]; ICV HN, hyperinsulinemic clamp) was “significantly higher”, the “glucose infusion rate (GIR) relative to aCSF” value ([2]; ICV HN, hyperinsulinemic clamp 3 mU/kg/min) was 165 % of aCSF and the “glucose infusion rate (GIR) during the hyperinsulinemic clamp” value ([2]; ICV HN, Example Summary, in mg/kg/min (unit assumed)) was 25.2 ±2.6. For the same compound, the “humanin in the rat periphery” value ([2]; after ICV infusion) was “No humanin was detected”.
